Reference: ChEMBL document CHEMBL4038347, “Converting Teixobactin into a Cationic Antimicrobial Peptide (AMP)” (2017)
≈ marks a conversion by molar mass, not a printed value. Calls of active or inactive are those of the source. No cut-off for these calls is given here.

What was measured:
Format in all cases: functional
Escherichia coli = assay: Antibacterial activity against Escherichia coli ATCC 25922 after 24 hrs by broth microdilution method
Pseudomonas aeruginosa = assay: Antibacterial activity against Pseudomonas aeruginosa ATCC 27853 after 24 hrs by broth microdilution method
Staphylococcus aureus = assay: Antibacterial activity against Staphylococcus aureus ATCC 29213 after 24 hrs by broth microdilution method; details: ATCC 29213, 24 h
Bacillus subtilis = assay: Antibacterial activity against Bacillus subtilis ATCC 6051 after 24 hrs by broth microdilution method; details: ATCC 6051, 24 h

SMILES	MIC (Escherichia coli; ATCC 25922, 24 h) [µg/mL]	MIC (Pseudomonas aeruginosa; ATCC 27853, 24 h) [µg/mL]	MIC (Staphylococcus aureus) [µg/mL]	MIC (Bacillus subtilis) [µg/mL]	MIC (Escherichia coli)	MIC (Pseudomonas aeruginosa)
CC[C@H](C)[C@H](NC(=O)[C@@H](Cc1ccccc1)NC)C(=O)N[C@@H](CO)C(=O)N[C@H](CCC(N)=O)C(=O)N[C@@H](C(=O)N[C@H](C(=O)N[C@@H](CO)C(=O)N[C@H]1C(=O)N[C@@H](CCCCN)C(=O)N[C@@H](CCCN)C(=O)N[C@@H]([C@@H](C)CC)C(=O)O[C@H]1C)[C@@H](C)CC)[C@@H](C)CC	32 (≈ 25.4 µM)	64 (≈ 50.8 µM)	2 (≈ 1.59 µM)	0.5 (≈ 0.397 µM)		
CC[C@H](C)[C@H](NC(=O)[C@@H](Cc1ccccc1)NC)C(=O)N[C@@H](CO)C(=O)N[C@H](CCC(N)=O)C(=O)N[C@@H](C(=O)N[C@H](C(=O)N[C@@H](CO)C(=O)N[C@H]1C(=O)N[C@@H](C)C(=O)N[C@@H](CCN=C(N(C)C)N(C)C)C(=O)N[C@@H]([C@@H](C)CC)C(=O)O[C@H]1C)[C@@H](C)CC)[C@@H](C)CC			64 (≈ 49.7 µM)	4 (≈ 3.11 µM)	inactive	inactive
